According to ChEMBL document CHEMBL3351407, “Synthesis of novel pyrazole–thiadiazole hybrid as potential potent and selective cyclooxygenase-2 (COX-2) inhibitors” (Bioorg Med Chem Lett, 2014):

Experiments:
[1] = target: T1, Prostaglandin G/H synthase 1 (Ovis aries, UniProt P05979); assay: Inhibition of ovine COX1
T1 sequence (P05979 whole entry): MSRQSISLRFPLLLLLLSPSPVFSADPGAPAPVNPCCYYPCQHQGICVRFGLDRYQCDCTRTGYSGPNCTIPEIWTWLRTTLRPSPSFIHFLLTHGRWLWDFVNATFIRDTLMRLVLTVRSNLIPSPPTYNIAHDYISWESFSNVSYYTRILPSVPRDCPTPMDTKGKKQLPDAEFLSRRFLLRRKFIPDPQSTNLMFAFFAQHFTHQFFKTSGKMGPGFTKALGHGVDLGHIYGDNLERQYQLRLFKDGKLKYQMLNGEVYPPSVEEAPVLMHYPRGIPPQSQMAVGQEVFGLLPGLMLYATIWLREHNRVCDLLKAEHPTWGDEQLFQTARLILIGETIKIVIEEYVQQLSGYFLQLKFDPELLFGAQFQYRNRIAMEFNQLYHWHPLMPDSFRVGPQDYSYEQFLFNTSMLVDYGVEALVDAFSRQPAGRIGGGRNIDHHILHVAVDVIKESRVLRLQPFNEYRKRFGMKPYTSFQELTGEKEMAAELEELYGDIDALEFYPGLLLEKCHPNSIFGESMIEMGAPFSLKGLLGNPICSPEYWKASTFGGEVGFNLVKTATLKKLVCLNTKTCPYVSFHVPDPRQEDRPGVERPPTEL

[2] = Cytotoxicity against HDF cells assessed as cell viability at 100 uM by MTT assay; type: cell-based; conditions: human, read-out: Activity

SMILES | IC50 [1] | viability at 100 µM [2]
S=C(N/N=C\c1cn(-c2ccccc2)nc1-c1ccc(Cl)cc1)Nc1ccccc1 | 64.5 µM | 61.7%
O=C1CS/C(=N/N=C\c2cn(-c3ccccc3)nc2-c2ccc(Br)cc2)N1c1ccccc1 | 60.5 µM | 57.4%
O=C1CS/C(=N/N=C\c2cn(-c3ccccc3)nc2-c2ccc(Cl)cc2)N1c1ccccc1 | 62.3 µM | 60.7%
CC(=O)N(C1=NN(C(C)=O)C(c2cn(-c3ccccc3)nc2-c2ccc(Cl)cc2)S1)c1ccccc1 (stereo unspecified) | 70.3 µM | 61.7%
CC(=O)NC1=NN(C(C)=O)C(c2cn(-c3ccccc3)nc2-c2ccc(Br)cc2)S1 (stereo unspecified) | 64.7 µM | 51.6%
S=C(N/N=C\c1cn(-c2ccccc2)nc1-c1ccc(Br)cc1)Nc1ccccc1 | 65.7 µM | 58.7%
CC(=O)NC1=NN(C(C)=O)C(c2cn(-c3ccccc3)nc2-c2ccc(Cl)cc2)S1 (stereo unspecified) | 70.3 µM | 57.7%
CC(=O)N(C1=NN(C(C)=O)C(c2cn(-c3ccccc3)nc2-c2ccc(Br)cc2)S1)c1ccccc1 (stereo unspecified) | 72.7 µM | 51.4%
COc1ccc(-c2nn(-c3ccccc3)cc2C2SC(N(C(C)=O)c3ccccc3)=NN2C(C)=O)cc1 (stereo unspecified) | 64.7 µM | 61.4%

The next lines start with results.

IC50 [1] | SMILES | viability at 100 µM [2]
80.3 µM | COc1ccc(-c2nn(-c3ccccc3)cc2C2SC(NC(C)=O)=NN2C(C)=O)cc1 (stereo unspecified) | 56.7%
60.3 µM | NC(=S)N/N=C\c1cn(-c2ccccc2)nc1-c1ccc(Br)cc1 | 57.6%
71.3 µM | COc1ccc(-c2nn(-c3ccccc3)cc2/C=N\NC2=NC(=O)CS2)cc1 | 59.7%
60.7 µM | O=C1CSC(N/N=C\c2cn(-c3ccccc3)nc2-c2ccc(Cl)cc2)=N1 | 58.7%
66.3 µM | O=C1CSC(N/N=C\c2cn(-c3ccccc3)nc2-c2ccc(Br)cc2)=N1 | 55.6%
62.3 µM | COc1ccc(-c2nn(-c3ccccc3)cc2/C=N\NC(N)=S)cc1 | 63.4%
56.3 µM | NC(=S)N/N=C\c1cn(-c2ccccc2)nc1-c1ccc(Cl)cc1 | 71.7%
42.3 µM | COc1ccc(-c2nn(-c3ccccc3)cc2/C=N\NC(=S)Nc2ccccc2)cc1 | 52.6%
62.3 µM | COc1ccc(-c2nn(-c3ccccc3)cc2/C=N\N=C2\SCC(=O)N2c2ccccc2)cc1 | 63.4%
